Laboratory results published in PubChem BioAssay AID844 (SRMLSC, 2007).
Activity calls are given as the source filed them. The rule behind the calls is not given here.

Test system: MRP1 cells, doxorubicin viability shift, 10 uM compound
Assay: viability protection against doxorubicin, MRP-1 line – cell-based, doxorubicin EC50 shift, dose response (AID 844)
Details: for EC50: measured here: doxorubicin EC50 with compound

Nc1ccc(C(=O)OCC(=O)N2c3ccccc3Sc3ccccc32)cc1[N+](=O)[O-]
fold increase in Dox EC50: 1.29 (inactive) | EC50: 6.97 µM

Cc1ccc2nc3c(cc2c1)CC1(C(=O)N(C)C(=O)N(C)C1=O)C1CCCCN31 (configuration not stated)
fold increase in Dox EC50: 0.59 (inactive) | EC50: 3.21 µM

Fc1ccc(N2CCN(c3ncnc4c3nnn4Cc3ccccc3Cl)CC2)cc1
fold increase in Dox EC50: 0.86 (inactive) | EC50: 4.67 µM

Cc1ccccc1NC(=O)CSC1=NCCN1
fold increase in Dox EC50: 0.69 (inactive) | EC50: 3.73 µM

O=C1/C(=C\c2cccs2)N=C(c2cccs2)N1Nc1ccccc1
fold increase in Dox EC50: 0.84 (inactive) | EC50: 4.55 µM

CCOC(=O)c1c(-c2cccs2)csc1NC(=O)CSc1ncn[nH]1
fold increase in Dox EC50: 0.2 (inactive) | EC50: 1.09 µM

CN(C)S(=O)(=O)c1ccc(S(=O)(=O)N2CCN(CCC#N)CC2)cc1
fold increase in Dox EC50: 0.71 (inactive) | EC50: 3.85 µM

Cc1cc(C)c(S(C)(=O)=O)c(Sc2ccc(Cl)cc2)n1
fold increase in Dox EC50: 0.81 (inactive) | EC50: 4.38 µM

c1ccc(-n2ncc3c(NCc4cccnc4)ncnc32)cc1
fold increase in Dox EC50: 0.57 (inactive) | EC50: 3.09 µM

C=CCc1c(C)nc(-c2ccccc2)nc1N/N=C(\C)c1ccccc1
fold increase in Dox EC50: 0.43 (inactive) | EC50: 2.34 µM

COC(=O)c1cnn(-c2cc(Oc3ccccc3)ncn2)c1N
fold increase in Dox EC50: 0.76 (inactive) | EC50: 4.11 µM

CC(NC(=O)C12CC3CC(CC(C3)C1)C2)c1ccc2c(c1)OCCO2 (configuration not stated)
fold increase in Dox EC50: 1.06 (inactive) | EC50: 5.7 µM

CCN(CC)S(=O)(=O)c1ccc(NN=C(C#N)C#N)cc1
fold increase in Dox EC50: 0.68 (inactive) | EC50: 3.7 µM

COC(=O)N/N=C/c1ccc(-c2ccc(C)c(Cl)c2)o1
fold increase in Dox EC50: 0.63 (inactive) | EC50: 3.41 µM

O=C(CSc1ncn[nH]1)NC12CC3CC(CC(C3)C1)C2
fold increase in Dox EC50: 0.64 (inactive) | EC50: 3.43 µM

N#CC(C#N)=NNc1ccc(S(=O)(=O)N2CCCC2)cc1
fold increase in Dox EC50: 1.09 (inactive) | EC50: 5.88 µM

Cc1ccc2nc(Nc3nc(CSc4nc5ccccc5s4)cc(=O)[nH]3)nc(C)c2c1
fold increase in Dox EC50: 1.08 (inactive) | EC50: 5.81 µM

Cn1c(N)c(C(=O)COC(=O)c2cc(C3CC3)nc3ccccc23)c(=O)n(Cc2ccccc2)c1=O
fold increase in Dox EC50: 0.94 (inactive) | EC50: 5.07 µM

O=C(Cn1c(=O)c2c(ncn2Cc2ccccc2)n(Cc2ccccc2)c1=O)N1CCc2ccccc21
fold increase in Dox EC50: 1.07 (inactive) | EC50: 5.76 µM

Cc1noc(/C=C/N(C)C)c1S(=O)(=O)N1CCCC(C(=O)NC2CCCCC2C)C1 (configuration not stated)
fold increase in Dox EC50: 0.92 (inactive) | EC50: 4.98 µM

Cc1ccc(-c2nnn(CC(=O)N(c3ccccc3F)C(C(=O)NCC3CCCO3)c3c[nH]c4ccccc34)n2)cc1 (configuration not stated)
fold increase in Dox EC50: 0.5 (inactive) | EC50: 2.67 µM

Cc1cccc(-c2cc3nc(C)cc(N4CC(C)CC(C)C4)n3n2)c1 (configuration not stated)
fold increase in Dox EC50: 0.49 (inactive) | EC50: 2.65 µM

CCn1c(COc2ccc(Cl)cc2)nnc1SCc1nc2ccccc2[nH]1
fold increase in Dox EC50: 0.35 (inactive) | EC50: 1.87 µM

CC(C)Oc1ccc(CSC(=N)N)cc1
fold increase in Dox EC50: 0.89 (inactive) | EC50: 4.81 µM

COc1ccc(CSC2=NCCN2)cc1Cl
fold increase in Dox EC50: 0.63 (inactive) | EC50: 3.4 µM

CC1(C)O[C@@H]2C[C@H]3[C@@H]4C[C@H](F)C5=CC(=O)CC[C@]5(C)[C@H]4[C@@H](O)C[C@]3(C)[C@]2(C(=O)CO)O1
fold increase in Dox EC50: 0.65 (inactive) | EC50: 3.52 µM

S=C(c1ccc(-c2ccccc2Cl)o1)N1CCCCC1
fold increase in Dox EC50: 0.85 (inactive) | EC50: 4.59 µM

COc1ccc(Cl)cc1C(=O)Nc1ccc2c(c1)OCO2
fold increase in Dox EC50: 0.66 (inactive) | EC50: 3.57 µM

CCOC(=O)C(C(=O)Nc1nc2ccccc2s1)C1CCCCC1 (configuration not stated)
fold increase in Dox EC50: 1 (inactive) | EC50: 5.39 µM

Cc1cc(=O)oc2c1ccc1oc(/C(=N/O)c3ccccc3)c(C)c12
fold increase in Dox EC50: 1.3 (inactive) | EC50: 7.02 µM

CC12CCC(c3nnc(SCc4ccc(Cl)cc4)nc31)C2(C)C (configuration not stated)
fold increase in Dox EC50: 1.32 (inactive) | EC50: 7.1 µM

CCOc1ccc(C2CC(c3ccc(CC)cc3)Nc3nc(N)nn32)cc1 (configuration not stated)
fold increase in Dox EC50: 1.24 (inactive) | EC50: 6.69 µM

Cc1cc(C)c(NC(=O)c2sc3nc4c(cc3c2N)C(=O)CC(C)(C)C4)c(C)c1
fold increase in Dox EC50: 0.7 (inactive) | EC50: 3.76 µM

N#Cc1nc(COc2cccc(Cl)c2)oc1N1CCCC1
fold increase in Dox EC50: 0.93 (inactive) | EC50: 5.04 µM

O=C(Nc1ccc(F)cc1)c1c(O)c2c(n(Cc3ccccc3)c1=O)CCCC2
fold increase in Dox EC50: 1.31 (inactive) | EC50: 7.07 µM

CCCCCCC(=O)Nc1ccc(C(=O)N/N=C/c2cccnc2)cc1
fold increase in Dox EC50: 0.13 (inactive) | EC50: 0.694 µM

O=C(NC(=S)Nc1ccccn1)c1cc(-c2ccccc2)nc2ccccc12
fold increase in Dox EC50: 0.91 (inactive) | EC50: 4.93 µM

N=c1oc2c3c4c(cc2cc1C(=O)Nc1ccccc1)CCCN4CCC3
fold increase in Dox EC50: 0.43 (inactive) | EC50: 2.32 µM

O=C1c2cccc(OCc3ccc(F)cc3)c2CCN1Cc1ccc(F)cc1
fold increase in Dox EC50: 1.08 (inactive) | EC50: 5.82 µM

CC(C)OC(=O)CSc1nnc2n1C(C)(C)Cc1ccccc1-2
fold increase in Dox EC50: 0.82 (inactive) | EC50: 4.42 µM

CCOC(=O)C1=C(C)Nc2ncnn2C1c1cccnc1 (configuration not stated)
fold increase in Dox EC50: 0.83 (inactive) | EC50: 4.5 µM

O=C(N/N=C/c1ccccc1[N+](=O)[O-])c1ccc(COc2ccccc2-c2ccccc2)cc1
fold increase in Dox EC50: 1 (inactive) | EC50: 5.39 µM

O=C(COc1ccc(Cl)cc1)NCc1nnc(SCC(=O)NCc2ccc3c(c2)OCO3)o1
fold increase in Dox EC50: 1.06 (inactive) | EC50: 5.74 µM

CCn1c(CNC(=O)COc2ccc(C(C)C)cc2)nnc1SCC(=O)Nc1ccccc1C(C)C
fold increase in Dox EC50: 1.04 (inactive) | EC50: 5.63 µM

CCc1nnc(NC(=O)c2ccc(S(=O)(=O)N(CC)CC)cc2)s1
fold increase in Dox EC50: 0.69 (inactive) | EC50: 3.73 µM

C=CCc1c(C)nc(-c2ccccc2)nc1N/N=C(\C)c1ccc(N)cc1
fold increase in Dox EC50: 1.3 (inactive) | EC50: 6.99 µM

O=C1c2ccccc2-c2nc3ccccc3n21
fold increase in Dox EC50: 1.09 (inactive) | EC50: 5.87 µM

CCOC(=O)/C=C1\SCC(=O)N1CCOc1cccc(Br)c1
fold increase in Dox EC50: 1.2 (inactive) | EC50: 6.5 µM

CCNc1ccc(C(=O)OCC(=O)c2cc(C)n(Cc3ccc4c(c3)OCO4)c2C)cc1[N+](=O)[O-]
fold increase in Dox EC50: 1.06 (inactive) | EC50: 5.74 µM

O=[N+]([O-])c1ccc(O)c(/C=N/n2cnc3ccccc32)c1
fold increase in Dox EC50: 0.67 (inactive) | EC50: 3.61 µM

O=C(CC(=O)N/N=C/c1ccccc1O)NCc1cccnc1
fold increase in Dox EC50: 0.39 (inactive) | EC50: 2.08 µM

C/C(=N/NC(=O)CSc1ccccn1)c1ccc([N+](=O)[O-])cc1
fold increase in Dox EC50: 0.77 (inactive) | EC50: 4.18 µM

COc1cccc(C2CC(c3ccc(Cl)cc3)Nc3nc(N)nn32)c1 (configuration not stated)
fold increase in Dox EC50: 0.88 (inactive) | EC50: 4.77 µM

CCC(=O)N1CCN=C1SCc1ccccc1
fold increase in Dox EC50: 0.74 (inactive) | EC50: 3.98 µM

COc1ccc(-c2nn(-c3ccccc3)cc2C(=O)Nc2nc(CC(C)=O)ns2)cc1
fold increase in Dox EC50: 0.99 (inactive) | EC50: 5.32 µM

CCCC(=O)NC(=S)Nc1ccc(C(C)=O)cc1
fold increase in Dox EC50: 0.46 (inactive) | EC50: 2.48 µM

COc1ccc(-c2ocnc2C(=O)Nc2ccccc2N2CCCCC2)cc1
fold increase in Dox EC50: 0.81 (inactive) | EC50: 4.37 µM

COc1ccc(N2CCN(c3nc(Cl)nc(N4CCOCC4)n3)CC2)cc1
fold increase in Dox EC50: 0.69 (inactive) | EC50: 3.72 µM

O=C(CSCc1ccc(Cl)cc1)NCC1CCCO1 (configuration not stated)
fold increase in Dox EC50: 1.1 (inactive) | EC50: 5.96 µM

CCOC(=O)c1cc(-c2ccccc2)sc1NC(=O)C(C)Sc1nnc(N)s1 (configuration not stated)
fold increase in Dox EC50: 0.73 (inactive) | EC50: 3.92 µM

COc1ccc(C(=O)Nc2ccc(Cl)c(S(=O)(=O)Nc3ccccc3OC)c2)cc1
fold increase in Dox EC50: 0.57 (inactive) | EC50: 3.05 µM

COc1ccc(NC(=O)CC2C(=O)N(c3ccc(Cl)cc3)C(=S)N2NC(=O)c2cccc(F)c2)cc1 (configuration not stated)
fold increase in Dox EC50: 0.67 (inactive) | EC50: 3.59 µM

CCOC(=O)CSc1nc(N)nc(C)c1Br
fold increase in Dox EC50: 0.78 (inactive) | EC50: 4.2 µM

O=C(Cc1ccccc1)Nc1ccccc1Oc1ccccc1
fold increase in Dox EC50: 0.69 (inactive) | EC50: 3.71 µM

O=C(NCc1ccc(Cl)cc1)C(=O)NCC(c1ccco1)N1CCOCC1 (configuration not stated)
fold increase in Dox EC50: 1.25 (inactive) | EC50: 6.77 µM

CSC1=NP(=S)(SC)N2CCCC2=C1C#N (configuration not stated)
fold increase in Dox EC50: 0.97 (inactive) | EC50: 5.24 µM

CC(/C=C1\SC(=S)N(NC(=O)c2ccc(O)cc2)C1=O)=C\c1ccccc1
fold increase in Dox EC50: 0.83 (inactive) | EC50: 4.46 µM

CCC1SC2=NC(C)=C(C(=O)OC)C(c3cccs3)N2C1=O (configuration not stated)
fold increase in Dox EC50: 1.1 (inactive) | EC50: 5.94 µM

CCn1c(COc2ccc(C)cc2)nnc1SCc1nc2ccccc2[nH]1
fold increase in Dox EC50: 0.88 (inactive) | EC50: 4.76 µM

CC(=O)c1ccc(N2CCN(c3ccc(C(F)(F)F)cn3)CC2)cc1
fold increase in Dox EC50: 0.56 (inactive) | EC50: 3 µM

Cc1ccc(C)c(N2CCN(C(=O)Cc3ccc(-n4c(=O)[nH]c5ccsc5c4=O)cc3)CC2)c1
fold increase in Dox EC50: 0.58 (inactive) | EC50: 3.12 µM

CC/C(=N\NC(=O)C(N)=O)c1ccccc1O
fold increase in Dox EC50: 0.61 (inactive) | EC50: 3.29 µM

CCOC(=O)c1ccc(N2CN=C3SCC(=O)N3C2)cc1
fold increase in Dox EC50: 0.3 (inactive) | EC50: 1.6 µM

CC1CCN(c2ncnc3c2cnn3-c2ccccc2)CC1
fold increase in Dox EC50: 0.31 (inactive) | EC50: 1.65 µM

Cc1cc(NC(=O)c2cc(C(C)C)on2)nn1Cc1ccc(Cl)cc1
fold increase in Dox EC50: 1.35 (inactive) | EC50: 7.27 µM

COc1cc(NS(=O)(=O)c2ccc(C)cc2)ccc1-n1cnnn1
fold increase in Dox EC50: 1.02 (inactive) | EC50: 5.51 µM
